koff and kon data for 44 compounds are collected here from BindingDB's records for patent US20230312550 (Astrazeneca, 2023).

The target of the assay is T1, Prolyl endopeptidase FAP (Homo sapiens, UniProt Q12884).
T1 sequence (Q12884 whole entry): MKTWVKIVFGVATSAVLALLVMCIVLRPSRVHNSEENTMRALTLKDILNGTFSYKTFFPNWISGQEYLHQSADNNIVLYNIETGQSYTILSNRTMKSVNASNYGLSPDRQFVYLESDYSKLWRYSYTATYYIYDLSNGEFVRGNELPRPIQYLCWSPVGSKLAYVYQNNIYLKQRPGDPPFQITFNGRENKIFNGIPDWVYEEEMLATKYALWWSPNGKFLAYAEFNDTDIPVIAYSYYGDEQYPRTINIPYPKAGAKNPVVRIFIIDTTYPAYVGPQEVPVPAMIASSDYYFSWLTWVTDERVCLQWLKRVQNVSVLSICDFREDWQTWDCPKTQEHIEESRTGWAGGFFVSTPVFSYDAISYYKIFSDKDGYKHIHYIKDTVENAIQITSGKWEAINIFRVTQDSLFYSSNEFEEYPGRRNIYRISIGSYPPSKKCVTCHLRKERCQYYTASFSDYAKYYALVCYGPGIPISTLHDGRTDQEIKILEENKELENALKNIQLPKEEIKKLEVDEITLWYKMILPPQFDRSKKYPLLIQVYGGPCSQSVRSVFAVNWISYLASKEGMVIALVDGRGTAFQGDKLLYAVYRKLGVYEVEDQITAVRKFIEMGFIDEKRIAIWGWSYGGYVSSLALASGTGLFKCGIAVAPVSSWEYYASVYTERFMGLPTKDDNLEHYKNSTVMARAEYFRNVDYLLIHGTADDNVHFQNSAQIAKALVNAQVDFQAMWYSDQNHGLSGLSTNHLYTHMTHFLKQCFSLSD
In words: hFAP Binding Assay. The following applies: for kon: read-out: kon (M-1-s-1).

Experimental: Table 1: Compounds were tested in a direct binding assay using 8K surface plasmon resonance biosensor (GE Healthcare) at 20° C. Immobilization of hFAP (M39-A757) on a CMD200M sensor chip (Xantec) was performed using standard amine coupling procedure in immobilization buffer (10 mM HEPES, 150 mM NaCl, 0.05% Tween20, pH 7.4). The surface was washed with 10 mM NaOH, 1M NaCl before being activated with EDC/NHS (GE Healthcare), followed by immobilization of hFAP (in 10 mM Acetate pH 5.0). Finally, the surface was deactivated by ethanolamine. Immobilization levels of hFAP were around 4000-6000 RU. The reference spot was treated as described, omitting the injection of hFAP. Compound concentration series were injected over the immobilized protein in increasing concentrations (2-500 nM) using single cycle kinetics in running buffer (20 mM TRIS, 150 mM NaCl, 0.05% Tween20, 1% DMSO, pH 7.4).

For the compound `N#C[C@@H]1CSCN1C(=O)CNC(=O)c1ccnc2ccc(N3CCSCC3)cc12` [US20230312550, Example 3], the off-rate constant (koff) came to 0.0004 s⁻¹ and the on-rate constant (kon) amounted to 4.1e+06 M⁻¹ s⁻¹. `Cc1cc(C(F)(F)F)nn1-c1ccc2nccc(C(=O)NCC(=O)N3CSC[C@H]3C#N)c2c1` [US20230312550, Example 116]: the koff is 0.0012 s⁻¹ and the kon is 7.9e+06 M⁻¹ s⁻¹. In the same order, the values of `N#C[C@@H]1CSCN1C(=O)CNC(=O)c1ccnc2ccc(N3C[C@H](O)C(F)(F)C3)cc12` [US20230312550, Example 224] are 6.8e-05 s⁻¹ and 3e+06 M⁻¹ s⁻¹. Consider `N#C[C@@H]1CSCN1C(=O)CNC(=O)c1ccnc2ccc(N3CC(F)(C(F)(F)F)C3)cc12` [US20230312550, Example 143], for which the koff amounted to 5.7e-05 s⁻¹ and the on-rate (kon) amounted to 1.6e+06 M⁻¹ s⁻¹. As to `N#C[C@@H]1CSCN1C(=O)CNC(=O)c1ccnc2ccc(N3CC(F)(F)C3)cc12` [US20230312550, Example 23], the off-rate constant (koff) was 0.00018 s⁻¹ and the on-rate (kon) amounted to 2.1e+06 M⁻¹ s⁻¹. Take `COC[C@@H]1[C@@H](C)OCCN1c1ccc2nccc(C(=O)NCC(=O)N3CSC[C@H]3C#N)c2c1` [US20230312550, Example 97]: the dissociation rate constant (koff) is 7.6e-05 s⁻¹ and the on-rate constant (kon) turned out to be 690000 M⁻¹ s⁻¹.

Consider `N#C[C@@H]1CSCN1C(=O)CNC(=O)c1ccnc2ccc(N3CC(OC(F)(F)F)C3)cc12` [US20230312550, Example 132], for which the off-rate constant (koff) was found to be 0.00014 s⁻¹ and the kon worked out at 270000 M⁻¹ s⁻¹. With `C[C@H]1COCCCN1c1ccc2nccc(C(=O)NCC(=O)N3CSC[C@H]3C#N)c2c1` [US20230312550, Example 63], the off-rate (koff) came to 5.9e-05 s⁻¹ and the on-rate constant (kon) worked out at 4.1e+06 M⁻¹ s⁻¹. On to `N#C[C@@H]1CSCN1C(=O)CNC(=O)c1ccnc2ccc(N3CCOCC34CCC4)cc12` [US20230312550, Example 104], for which the koff was determined as 6.1e-05 s⁻¹ and the on-rate constant (kon) is 3e+06 M⁻¹ s⁻¹.

For `N#C[C@@H]1CSCN1C(=O)CNC(=O)c1c(F)cnc2ccc(N3CCOCC3)cc12` [US20230312550, Example 2], the koff was found to be 0.0038 s⁻¹ and the kon is 410000 M⁻¹ s⁻¹. The like results for `CC1(C)COC12CN(c1ccc3nccc(C(=O)NCC(=O)N4CSC[C@H]4C#N)c3c1)C2` [US20230312550, Example 18] were, in that order, 5.9e-05 s⁻¹ and 1.4e+06 M⁻¹ s⁻¹. As to `N#C[C@@H]1CSCN1C(=O)CNC(=O)c1ccnc2ccc(N3CCCC4(CC4)C3)cc12` [US20230312550, Example 46], the dissociation rate constant (koff) was determined as 6.2e-05 s⁻¹ and the kon was 3e+06 M⁻¹ s⁻¹.

Consider `Cc1ncccc1-c1ccc2nccc(C(=O)NCC(=O)N3CSC[C@H]3C#N)c2c1` [US20230312550, Example 128], for which the off-rate (koff) was found to be 0.00066 s⁻¹ and the kon was determined as 5.4e+06 M⁻¹ s⁻¹. As for `CO[C@@H]1CCN(c2ccc3nccc(C(=O)NCC(=O)N4CSC[C@H]4C#N)c3c2)C1` [US20230312550, Example 161], the koff turned out to be 0.00028 s⁻¹ and the on-rate constant (kon) came out at 1.4e+07 M⁻¹ s⁻¹. Turning to `Cc1noc(C)c1-c1ccc2nccc(C(=O)NCC(=O)N3CSC[C@H]3C#N)c2c1` [US20230312550, Example 216], the koff turned out to be 0.0009 s⁻¹ and the association rate constant (kon) was found to be 5.2e+06 M⁻¹ s⁻¹. In the case of `N#C[C@@H]1CSCN1C(=O)CNC(=O)c1ccnc2ccc(N3CCCCC3=O)cc12` [US20230312550, Example 14], the koff worked out at 6.4e-05 s⁻¹ and the association rate constant (kon) was determined as 1.3e+06 M⁻¹ s⁻¹. Take `CO[C@H]1CCCN(c2ccc3nccc(C(=O)NCC(=O)N4CSC[C@H]4C#N)c3c2)C1` [US20230312550, Example 41]: the koff came to 6.4e-05 s⁻¹ and the kon was found to be 680000 M⁻¹ s⁻¹. For the compound `N#C[C@@H]1CSCN1C(=O)CNC(=O)c1ccnc2ccc(N3CC4C(C3)C4(F)F)cc12` (some centres not stated) [US20230312550, Example 160], the dissociation rate constant (koff) is 7.4e-05 s⁻¹ and the association rate constant (kon) was determined as 1.1e+06 M⁻¹ s⁻¹. As to `CCC1(OC)CCN(c2ccc3nccc(C(=O)NCC(=O)N4CSC[C@H]4C#N)c3c2)CC1` [US20230312550, Example 191], the off-rate (koff) was 3.3e-05 s⁻¹ and the on-rate constant (kon) was 1.5e+06 M⁻¹ s⁻¹.

As for `C[C@H]1CCCN(c2ccc3nccc(C(=O)NCC(=O)N4CSC[C@H]4C#N)c3c2)C1=O` [US20230312550, Example 203], the dissociation rate constant (koff) was found to be 6.3e-05 s⁻¹ and the kon amounted to 440000 M⁻¹ s⁻¹. In the same order, the values of `N#C[C@@H]1CSCN1C(=O)CNC(=O)c1ccnc2ccc(N3CC4(CC4)C3)cc12` [US20230312550, Example 164] are 3.6e-05 s⁻¹ and 1.4e+06 M⁻¹ s⁻¹. On to `N#C[C@@H]1CSCN1C(=O)CNC(=O)c1ccnc2ccc(-c3ccc(C(F)F)nc3)cc12` [US20230312550, Example 169], for which the koff worked out at 0.00096 s⁻¹ and the kon turned out to be 6.2e+06 M⁻¹ s⁻¹. With `N#C[C@@H]1CSCN1C(=O)CNC(=O)c1ccnc2ccc(N3C4CCC3CC4)cc12` [US20230312550, Example 209], the off-rate (koff) was 4.2e-05 s⁻¹ and the kon stood at 3.2e+06 M⁻¹ s⁻¹. For the compound `N#C[C@@H]1CSCN1C(=O)CNC(=O)c1ccnc2ccc(N3CC(CCC(F)(F)F)C3)cc12` [US20230312550, Example 142], the dissociation rate constant (koff) was 5.5e-05 s⁻¹ and the on-rate constant (kon) was 1.8e+06 M⁻¹ s⁻¹.

Turning to `CC(=O)N1CC2(C1)CN(c1ccc3nccc(C(=O)NCC(=O)N4CSC[C@H]4C#N)c3c1)C2` [US20230312550, Example 184], the koff worked out at 1.4e-05 s⁻¹ and the on-rate constant (kon) is 950000 M⁻¹ s⁻¹. Turning to `N#C[C@@H]1CSCN1C(=O)CNC(=O)c1ccnc2ccc(N3CCOc4ccccc43)cc12` [US20230312550, Example 6], the koff is 18 s⁻¹. Consider `N#C[C@@H]1CSCN1C(=O)CNC(=O)c1ccnc2ccc(N3CCC[C@@H]3C3CC3)cc12` [US20230312550, Example 199], for which the koff turned out to be 0.00026 s⁻¹ and the kon came to 2.3e+06 M⁻¹ s⁻¹.

For the compound `C[C@H]1CCCN1c1ccc2nccc(C(=O)NCC(=O)N3CSC[C@H]3C#N)c2c1` [US20230312550, Example 65], the koff was 0.00047 s⁻¹ and the on-rate constant (kon) worked out at 6.7e+06 M⁻¹ s⁻¹. Regarding `CO[C@H]1CCN(c2ccc3nccc(C(=O)NCC(=O)N4CSC[C@H]4C#N)c3c2)C1` [US20230312550, Example 207], the koff stood at 5.3e-05 s⁻¹ and the kon came to 4.6e+06 M⁻¹ s⁻¹. `CC(C)C1CN(c2ccc3nccc(C(=O)NCC(=O)N4CSC[C@H]4C#N)c3c2)C1` [US20230312550, Example 148]: the off-rate (koff) stood at 0.0002 s⁻¹ and the kon was 6.6e+06 M⁻¹ s⁻¹.

For the compound `N#C[C@@H]1CSCN1C(=O)CNC(=O)c1ccnc2ccc(N3CCCC[C@H]3CF)cc12` [US20230312550, Example 45], the koff was 0.00018 s⁻¹ and the association rate constant (kon) was found to be 5.4e+06 M⁻¹ s⁻¹. The like results for `Cc1ccc(-c2ccc3nccc(C(=O)NCC(=O)N4CSC[C@H]4C#N)c3c2)cn1` [US20230312550, Example 177] were, in that order, 5.8e-05 s⁻¹ and 100000 M⁻¹ s⁻¹. The like results for `CC1CC2(C1)CN(c1ccc3nccc(C(=O)NCC(=O)N4CSC[C@H]4C#N)c3c1)C2` [US20230312550, Example 149] were, in that order, 3.9e-05 s⁻¹ and 4.8e+06 M⁻¹ s⁻¹.

For the compound `C[C@@H]1CN(c2ccc3nccc(C(=O)NCC(=O)N4CSC[C@H]4C#N)c3c2)CCCO1` [US20230312550, Example 64], the dissociation rate constant (koff) is 0.00015 s⁻¹ and the association rate constant (kon) turned out to be 1.3e+06 M⁻¹ s⁻¹. Take `N#C[C@@H]1CSCN1C(=O)CNC(=O)c1ccnc2ccc(N3CCC34CCC4)cc12` [US20230312550, Example 19]: the dissociation rate constant (koff) was found to be 6.6e-05 s⁻¹ and the on-rate constant (kon) was found to be 430000 M⁻¹ s⁻¹. In the case of `COC[C@@H]1CCCN1c1ccc2nccc(C(=O)NCC(=O)N3CSC[C@H]3C#N)c2c1` [US20230312550, Example 212], the off-rate (koff) is 0.00034 s⁻¹ and the association rate constant (kon) amounted to 3.3e+06 M⁻¹ s⁻¹. `N#C[C@@H]1CSCN1C(=O)CNC(=O)c1ccnc2ccc(N3CCC[C@H]3C(F)(F)F)cc12` [US20230312550, Example 56]: the koff is 0.00011 s⁻¹ and the kon came to 540000 M⁻¹ s⁻¹. In the same order, the values of `C[C@H]1CCN(c2ccc3nccc(C(=O)NCC(=O)N4CSC[C@H]4C#N)c3c2)C1` [US20230312550, Example 54] are 0.00023 s⁻¹ and 6.2e+06 M⁻¹ s⁻¹. The like results for `N#C[C@@H]1CSCN1C(=O)CNC(=O)c1ccnc2ccc(-n3ccc(-c4ccccc4)c3)cc12` [US20230312550, Example 218] were, in that order, 0.00032 s⁻¹ and 670000 M⁻¹ s⁻¹. For `N#C[C@@H]1CSCN1C(=O)CNC(=O)c1ccnc2ccc(-c3cccnc3)cc12` [US20230312550, Example 126], the off-rate (koff) is 0.00021 s⁻¹ and the kon turned out to be 1.8e+06 M⁻¹ s⁻¹. In the same order, the values of `N#C[C@@H]1CSCN1C(=O)CNC(=O)c1ccnc2ccc(N3CCC(C(F)(F)F)CC3)cc12` [US20230312550, Example 39] are 0.00016 s⁻¹ and 4.9e+06 M⁻¹ s⁻¹. Consider `C[C@H]1CCN(c2ccc3nccc(C(=O)NCC(=O)N4CSC[C@H]4C#N)c3c2)CCO1` [US20230312550, Example 62], for which the off-rate constant (koff) was determined as 8.5e-05 s⁻¹ and the kon worked out at 710000 M⁻¹ s⁻¹. The like results for `C[C@@H]1COC[C@@H](C)N1c1ccc2nccc(C(=O)NCC(=O)N3CSC[C@H]3C#N)c2c1` [US20230312550, Example 105] were, in that order, 6.8e-05 s⁻¹ and 890000 M⁻¹ s⁻¹. As for `N#C[C@@H]1CSCN1C(=O)CNC(=O)c1ccnc2ccc(N3CC4(CC(F)C4)C3)cc12` [US20230312550, Example 155], the koff stood at 5e-05 s⁻¹ and the kon was found to be 3.1e+06 M⁻¹ s⁻¹.

Broadly, the koff is the first-order rate constant of dissociation. Low values mean a long-lived complex, high ones a short-lived complex. Broadly, the kon is the second-order rate constant of association.
